Data published in patent publication US20080194507A1, “Defibrotide An/Or Oligodeoxyribonucleotides For Treating Angiogenesis-Dependent Tumors” (priority 2005, published 2008).

Columns and labels:
human gastric carcinoma = test: Dorsal skin chamber assay, human gastric carcinoma mouse model (Xenograft system); format: in vivo; conditions: first data; treated vs control tumors
Text: We are currently performing a dorsal skin chamber assay (14) that investigates the effect of defibrotide in a highly vascularized human gastric carcinoma mouse model (Xenograft system). […] This set of experiments will be reproduced in due time.

[1] = tested on: transdifferentiating ELC (TuDC-ELC); test: Matrigel tube formation assay of TuDC-ELC; format: cell-based, human; conditions: for tube formation of TuDC-ELC in Matrigel: 10 μg/mL, 7 days, clinical and subclinical concentrations
Text: We have recently developed a model for an alternative pathway of tumor angiogenesis. […] These endothelial-like cells (ELC) can transdifferentiate from tumor-associated dendritic cells under specific culture conditions (11). Briefly, monocytes are elutriated from leukapheresis products of healthy human blood donors and cultured in the presence of granulocyte-macrophage-colony stimulating factor (GM-CSF) and interleukin 4 (IL-4) to stimulate the differentiation of dendritic cells (DC). In addition, cells are treated with a cocktail specifically released by tumor cells (M-CSF, IL.6 and lactate, Gottfried et al., manucript submitted) to promote the outgrowth of tumor-associated dendritic cells (TuDC).
In addition, they are able to form tube-like structures in Matrigel™, an in vitro assay of angiogenesis.
(§1) The Matrigel™ assay is one of the most popular and widely used in vitro angiogenesis assays (22). Matrigel™ is a semisolid synthetic mixture of extracellular matrix proteins which simulate the matrix that physiologically exist beneath the endothelial cell wall of a blood vessel. When the cells of question are seeded onto this matrix in microscopic chamber slides, they are activated to form tubular structures in 3-7 days, but only in the case that they have an endothelial phenotype. Therefore, this assay is suitable to show the potential capacity of cells to give rise to a tumor vasculature.
(§2) TuDC-ELC and mature, differentiated endothelial cells, [human umbilical vene (HUVEC) or microvascular endothelial cells (HMEC) as “stable” controls] were incubated in the presence or absence of oligotide or Defibrotide (10 μg/mL each) for 7 days.
By the help of a complimentary software from the NIH (Image J, http://rsb.info.nih.gov/ij/), we are able to quantify these effects, the total length of tubes and the area of the photograph are assessed, the microvascular density (MVD) is then given in total length/area [pix-1].

[2] = tested on: activated p70S6 kinase (p-p70S6); test: Western Blot analyses of activated p70S6 kinase; format: cell-based; conditions: preliminary evidence
[3] = tested on: human umbilical vene (HUVEC) endothelial cells; test: Matrigel tube formation assay of HUVEC; format: cell-based; conditions: single addition, 10 μg/mL, 7 days
Description: as §1, §2

[4] = tested on: human microvascular endothelial cells; test: Angiogenesis assay of microvascular endothelial cells vascularizing through a layer of dermal fibroblasts; format: cell-based
Description: The aortic ring assay investigates macrovascular endothelial cells. But often, the tumor vasculature consists of microvascular endothelial cells. Therefore, a third in vitro angiogenesis assay was performed on the basis of microvascular endothelial cells vascularizing through a layer of dermal fibroblasts after 9-11 days of culture. These vessel-like structures can subsequently be visualized by staining for CD31 and vWF.

[5] = tested on: microvascular endothelial cells (HMEC); test: Matrigel tube formation assay of HMEC; format: cell-based, human; conditions: single addition, 10 μg/mL, 7 days
Description: as §1, §2

Substance	microvascular density (MVD) of tumors (human gastric carcinoma)	tube formation of TuDC-ELC in Matrigel [1]	microvascular density (MVD), total length/area ([1]; TuDC-ELC, p=0.02, TTEST, FIG. 1B)	effect on activated p70S6 kinase (p-p70S6) [2]	tube formation potential [3]	angiogenesis of human microvascular endothelial cells ([4]; daily application, 9-11 days of culture, CD31 and vWF staining)	most effective concentration ([4]; human microvascular endothelial cells, FIGS. 3A and B)	tube formation potential [5]
defibrotide	lower than that of control tumors	inhibit tube formation	downregulates	downregulating effect	not affected	block angiogenesis	around 10 μg/mL	not affected
oligotide	–	inhibit tube formation	–	–	–	–	–	–
